Test results published in patent US8324212B2, “Compounds for the treatment of hepatitis C” (Bristol-Myers Squibb Company, priority 2010, dated 2012).

How the values were obtained:
HCV = conditions: cited from earlier work
[1] = biological target: T1, HCV NS5B RdRp genotype 1b (Hepatitis C virus genotype 1b, UniProt Q9WMX2); assay: HCV NS5B RdRp enzyme assay; type: biochemical; conditions: standard or modified assay not stated
T1 construct: The cDNA encoding the NS5B protein of HCV, genotype 1b; made in house; host or cells: E. coli BL21 (DE3)
T1 sequence (Q9WMX2 2420-2992): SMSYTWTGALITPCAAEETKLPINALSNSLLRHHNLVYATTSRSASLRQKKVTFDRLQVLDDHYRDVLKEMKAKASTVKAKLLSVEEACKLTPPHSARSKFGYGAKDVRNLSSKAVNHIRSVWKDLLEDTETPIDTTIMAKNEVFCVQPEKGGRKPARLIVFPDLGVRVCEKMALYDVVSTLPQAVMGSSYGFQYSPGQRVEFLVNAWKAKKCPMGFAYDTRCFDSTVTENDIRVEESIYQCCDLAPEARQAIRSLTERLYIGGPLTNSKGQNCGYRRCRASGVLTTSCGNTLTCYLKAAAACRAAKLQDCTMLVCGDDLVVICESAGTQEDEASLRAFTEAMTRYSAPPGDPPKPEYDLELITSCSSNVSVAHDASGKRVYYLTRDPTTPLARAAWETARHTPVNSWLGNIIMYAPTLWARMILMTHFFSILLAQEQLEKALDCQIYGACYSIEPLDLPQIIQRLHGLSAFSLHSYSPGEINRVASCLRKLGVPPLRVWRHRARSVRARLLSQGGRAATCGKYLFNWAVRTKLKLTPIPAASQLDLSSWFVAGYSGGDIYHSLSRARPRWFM
Protocol: HCV NS5B RdRp cloning, expression, and purification. The cDNA encoding the NS5B protein of HCV, genotype 1b, was cloned into the pET21a expression vector. The protein was expressed with an 18 amino acid C-terminal truncation to enhance the solubility. The E. coli competent cell line BL21 (DE3) was used for expression of the protein. Cultures were grown at 37° C. for ˜4 hours until the cultures reached an optical density of 2.0 at 600 nm. The cultures were cooled to 20° C. and induced with 1 mM IPTG. Fresh ampicillin was added to a final concentration of 50 μg/ml and the cells were grown overnight at 20° C.
Cell pellets (3L) were lysed for purification to yield 15-24 mgs of purified NS5B. The lysis buffer consisted of 20 mM Tris-HCl, pH 7.4, 500 mM NaCl, 0.5% triton X-100, 1 mM DTT, 1 mM EDTA, 20% glycerol, 0.5 mg/ml lysozyme, 10 mM MgCl2, 15 ug/ml deoxyribonuclease I, and Complete TM protease inhibitor tablets (Roche). After addition of the lysis buffer, frozen cell pellets were resuspended using a tissue homogenizer. To reduce the viscosity of the sample, aliquots of the lysate were sonicated on ice using a microtip attached to a Branson sonicator. The sonicated lysate was centrifuged at 100,000×g for 1 hr at 4° C. and filtered through a 0.2 μm filter unit (Corning).
The protein was purified using three sequential chromatography steps: Heparin sepharose CL-6B, polyU sepharose 4B, and Hitrap SP sepharose (Pharmacia). The chromatography buffers were identical to the lysis buffer but contained no lysozyme, deoxyribonuclease I, MgCl2 or protease inhibitor and the NaCl concentration of the buffer was adjusted according to the requirements for charging the protein onto the column. Each column was eluted with a NaCl gradient which varied in length from 5-50 column volumes depending on the column type. After the final chromatography step, the resulting purity of the enzyme is >90% based on SDS-PAGE analysis. The enzyme was aliquoted and stored at −80° C.
Standard HCV NS5B RdRp enzyme assay. HCV RdRp genotype 1b assays were run in a final volume of 60 μl in 96 well plates (Costar 3912). The assay buffer is composed of 20 mM Hepes, pH 7.5, 2.5 mM KCl, 2.5 mM MgCl2, 1 mM DTT, 1.6 U RNAse inhibitor (Promega N2515), 0.1 mg/ml BSA (Promega R3961), and 2% glycerol. All compounds were serially diluted (3-fold) in DMSO and diluted further in water such that the final concentration of DMSO in the assay was 2%. HCV RdRp genotype 1b enzyme was used at a final concentration of 28 nM. A polyA template was used at 6 nM, and a biotinylated oligo-dT12 primer was used at 180 nM final concentration. […] Plates were read on a Packard Top Count NXT after >1 hr incubation at room temperature. […]
IC50 values for compounds were determined using seven different [I]. […]

HCV replicon = HCV replicon assay (FRET / luciferase reporter); type: cell-based; conditions: Hepatitis C virus; HCV replicon cells (HUH-7)
Description: FRET Assay Preparation. To perform the HCV FRET screening assay, 96-well cell culture plates were used. The FRET peptide (Anaspec, Inc.) (Taliani et al., Anal. Biochem. 1996, 240, 60-67) contains a fluorescence donor, EDANS, near one end of the peptide and an acceptor, DABCYL, near the other end. The fluorescence of the peptide is quenched by […] resonance energy transfer (RET) between the donor and the acceptor, but as the NS3 protease cleaves the peptide the products are released from RET quenching and the fluorescence of the donor becomes apparent. The assay reagent was made as follows: 5× cell Luciferase cell culture lysis reagent from Promega (#E153A) diluted to 1× with dH2O, NaCl added to 150 mM final, the FRET peptide diluted to 20 μM final from a 2 mM stock. […]
Assays. […] After reading in a Cytoflour 4000 instrument (PE Biosystems), plates were rinsed with PBS and then used for FRET assay by the addition of 30 ul of the FRET peptide assay reagent described above (FRET Assay Preparation) per well. The plate was then placed into the Cytoflour 4000 instrument which had been set to 340 excite/490 emission, automatic mode for 20 cycles and the plate read in a kinetic mode. Typically, the signal to noise using an endpoint analysis after the reads was at least three-fold. Alternatively, after Alamar blue reading, plates were rinsed with PBS, 50 ul of DMEM (high glucose) without phenol red was added and plates were then used for luciferase assay using the Promega Dual-Glo Luciferase Assay System.
Compound analysis was determined by quantification of the relative HCV replicon inhibition and the relative cytotoxicity values. To calculate cytoxicity values, the average Alamar Blue fluorescence signals from the control wells were set as 100% non-toxic. […]

**Q.** With `CNC(=O)c1c(-c2ccc(F)cc2)oc2cc(N(CCO)S(C)(=O)=O)c(C3CC3)cc12` [HCV-796] as the molecule, how does the “toxicity during extended dosing” value (HCV; patients, extended dosing of the combination regimens) read?
**A.** hepatic toxicity observed

**Q.** What about the “HCV RNA levels in patients” value (HCV; single agent or combined with interferon and ribavirin) of the same molecule?
**A.** showed an ability to reduce HCV RNA levels in patients

**Q.** For `CNC(=O)c1c(-c2ccc(F)cc2)nn2ncc(-c3cc(C(=O)NC4(c5ccccc5)CC4)ccc3C)cc12` [Example 1, 2-(4-fluorophenyl)-N-methyl-5-(2-methyl-5-(1-phenylcyclopropylcarbamoyl)phenyl)pyrazolo[1,5-b]pyridazine-3-carboxamide], which IC50 [1] is on record?
**A.** < 17 nM

**Q.** And the EC50 (HCV replicon)?
**A.** 5 nM

**Q.** Which IC50 [1] does the source give for `CNC(=O)c1c(-c2ccc(F)cc2)nn2nccc(-c3cc(C(=O)NC4(c5ccccc5)CC4)ccc3C)c12` [Example 2, 2-(4-fluorophenyl)-N-methyl-4-(2-methyl-5-(1-phenylcyclopropylcarbamoyl)phenyl)pyrazolo[1,5-b]pyridazine-3-carboxamide] here?
**A.** 3060 nM

**Q.** What does the source list for `CNC(=O)c1c(-c2ccc(F)cc2)nn2ncc(-c3cc(C(=O)NC4(c5ccccc5)CC4)c(OC)cc3C)cc12` [Example 3, 2-(4-fluorophenyl)-5-(4-methoxy-2-methyl-5-(1-phenylcyclopropylcarbamoyl)phenyl)-N-methylpyrazolo[1,5-b]pyridazine-3-carboxamide]?
**A.** IC50 [1]: 11 nM; EC50 (HCV replicon): 2 nM

**Q.** With `CNC(=O)c1c(-c2ccc(F)cc2)nn2ncc(-c3cc(C(=O)NC4(c5ncccn5)CC4)c(OC)cc3C)cc12` [Example 4, 2-(4-fluorophenyl)-5-(4-methoxy-2-methyl-5-(1-(pyrimidin-2-yl)cyclopropylcarbamoyl)phenyl)-N-methylpyrazolo[1,5-b]pyridazine-3-carboxamide] as the molecule, how does the IC50 [1] read?
**A.** 14 nM

**Q.** What about the EC50 (HCV replicon) of the same molecule?
**A.** 12 nM
